Data from patent US7704723B2, “Isolation and characterization of novel clostridial species” (The Board of Regents For Oklahoma State University, priority 2006, dated 2010).
In brackets after ≈: the same amount, converted by molar mass. Structures can show the parent of a compound that is named as a salt.

Columns and labels:
strain P11 [1] = test: Trace metals elimination (0x) and addition (10x) in CO medium; type: cell-based, Clostridium ragsdalei; conditions: for Acetate production on elimination of the metal / CO metabolism on elimination of the metal / Increase in solvent to acid ratio on elimination of the metal: 0x metal in COM; for CO metabolism at increased level of the metal: 10x metal in COM, especially after a 48 hour feeding
Procedure: Bacterial Strain and Cultivation Media. Clostridial strain P11 was used throughout the study. […] The growth temperature was 37° C. […] Analytical methods. […] Milton Roy) in aluminum seal tubes (Balch & Wolfe, 1976). […] Hydrogen ion concentration was measured by electrode. Trace metals. […] Triplicate tubes of unamended (1×) and amended (0× and 10×) media were inoculated with strain P11 where each of these individual trace metals were added to or eliminated from the COM at 10× and 0× the original metal concentration. The cultures were fed every 48 hours with CO. This was also completed in duplicate in 160 mL serum bottles to simulate small scale batch conditions. Stock solutions were prepared for each of the above metals and added during the media preparation before boiling and degassing. […] In order to adapt cells to the higher concentrations of metals, at least 2 transfers were made for each set-up. This experiment was performed in triplicate and growth was measured over 7 days after which pH and ethanol concentration analyses were completed.

[2] = test system: Clostridium ragsdalei strain P11; test: Growth of strain P11 on organic and gaseous substrates as sole carbon and energy sources; type: cell-based; conditions: Clostridium ragsdalei; malate and formate examined at pH 5.0-6.5
Procedure: Except for the deletion of NaHCO3 and an initial pH 6.3, growth on organic and gaseous substrates was performed as previously described (Tanner et. al., 1993). Resazurin (1 mg/L) was used as the redox indicator. Purified agar was added to the medium at a concentration of 2% for colony morphology description (Table 5). Heat labile substrates were filter sterilized (not autoclaved) and added from sterile stock solutions to a final concentration of 5 g/L before inoculation. The optimum temperature and pH (initial pH) was determined in medium containing fructose as the substrate. For determination of the optimum pH, media was buffered with HOMOPIPES (homopiperazine-N,N′-bis-2-[ethanesulfonic acid] (Research Organics, Cleveland, Ohio), MES (2-[N-morpholino]ethanesulfonic acid), or TES (N-tris [hydroxymethyl]methyl-2-aminoethanesulfonic acid) at (1.0 g/L). A 0.1 ml (˜2%) inoculum of fructose-grown cells was used to initiate growth. All media components used in these experiments were obtained from Sigma unless otherwise noted (Sigma Chemical Co., St. Louis, Mo.).
Analytical methods. […] For the substrate malate, utilization was analyzed by HPLC (“high-performance liquid chromatography”) equipped with a UV detector set at 214 nm using a Alltech, Prevail Organic Acid column (4.6×150 mm, 5 μm; Alltech, Deerfield, Mich.) with a mobile phase of 25 mM KH2PO4, pH 2.5 and 10% (v/v) methanol.

strain P11 [3] = test: microbe, parasite or virus in culture
Procedure: (§1) Bacterial Strain and Cultivation Media. Clostridial strain P11 was used throughout the study. Carbon monoxide medium (COM) was used to cultivate and maintain the culture. The growth temperature was 37° C. COM is an undefined buffered medium initially pressurized to 10 psi (70 kPa) with N2/CO2 and then autoclaved for 15 minutes at 121° C. The medium contained per liter of distilled water: 25 ml mineral solution (Table 1), 10 ml trace metals solution (Table 2, 10 ml vitamin solution (Table 3), 1.0 g of yeast extract, 10 g of MES (2-[N-morpholino]ethanesulfonic acid), 0.001 g resazurin, 4.0 g cysteine.HCl, and 4.0 Na2S.9H2O; the initial pH of this medium was 6.1-6.3. The medium was prepared using strict anaerobic technique (Balch & Wolfe, 1976). Carbon monoxide was the sole substrate provided at 210 kPa (30 psi). Unless otherwise noted all growth experiments were conducted under a pressure of 30 psi with CO as the sole or primary substrate and were incubated horizontally to maximize gas diffusion into the medium. Standard inoculum size was about 2% (v/v) transferred from a stock culture that was growing in mid to late exponential phase, unless otherwise noted.
(§2) Analytical methods. Growth was measured spectrophotometrically at 600 nm (Spectronic 20D; Milton Roy) in aluminum seal tubes (Balch & Wolfe, 1976). Acetate and ethanol were measured simultaneously by a gas chromatograph (GC) equipped with a flame ionization detector (FID) on a Varian 3400 equipped with a 2 m steel column packed with an 80/120 Carbopak B-DA/4% carbowax resin 20M (Supelco, Bellfonte, Pa.). The column, injector, and detector temperature were 155, 200, and 200° C. respectively. Helium was the carrier gas and the flow rate was set at 30 ml min^−1. Hydrogen ion concentration was measured by electrode.
Ethanol tolerance. The effect of ethanol on CO metabolism and solvent production was investigated with strain P11. The initial maximum concentration at which strain P11 could survive was determined during the course of these studies. […] Liquid samples (1.0 mL) were extracted once the cells remained at stationary phase and stored frozen (−20° C.) until analyzed by GC and HPLC. After the maximum ethanol concentration for cell survival was determined semi-continuous batch culture experiments were conducted using 500 mL serum bottles containing between 100-200 mL of COM containing different concentrations of ethanol (20, 30, 40, and 50 g/L) to adapt strain P11 to high solvent conditions. The amended COM with ethanol was prepared by adding filter sterilized ethanol to pre-sterilized Balch tubes, and then purging with N/CO2 to remove oxygen. After the media was sterilized, the ethanol was then added to the appropriate concentrations. These bottles were inoculated with the P11 cells from the semi-continuous batch cultures that were already established above. Growth and pH were measured periodically. A portion of the medium extracted for those measurements was taken for analyses of ethanol and acetate concentrations.

strain P11 [4] = test: Metabolic inhibitor studies (FA/TFA) in CO medium; type: cell-based, Clostridium ragsdalei; conditions: for Ethanol production compared to the control strains: P11 in the presence of the inhibitor, identical conditions
Procedure: as §1, §2
Metabolic Inhibitor Studies. Filter sterilized anaerobic stock solutions of fluoroacetate (FA) and trifluoroacetate (TFA) (Sigma Chemical Co.) were prepared to final concentrations of 4.5M. Before preparation, the FA and TFA powders were allowed to sit overnight in small beakers in the anaerobic chamber to allow any trapped oxygen to diffuse from the powder. […] The inhibitors were usually added to the medium one day prior to inoculating with P11 to ensure anaerobicity was maintained. All additions were made anaerobically by syringe. During this study growth was measured periodically by spectroscopy. Toward the end of resting cell phase, liquid samples (1 mL) were taken and stored frozen (−20° C.) until analyzed by GC and HPLC.

thermophilic clostridium = conditions: cited from earlier work
[5] = iron increased tenfold compared to standard medium

Compound: [Cu] [Cu, copper]
- Acetate production on elimination of the metal (strain P11 [1]): decreased acetate production
- CO metabolism on elimination of the metal (strain P11 [1]): limited CO metabolism
- CO metabolism at increased level of the metal (strain P11 [1]): stimulated CO metabolism

Compound: CCO [Ethanol]
- Growth with substrate [2]: chemoorganotrophic growth was observed
- MIC (strain P11 [3]; Clostridium ragsdalei, P11, read-out: Minimum inhibitory concentration): 35 mg/mL (≈ 760 mM)
- Growth at the 50 g/L ethanol concentration (strain P11 [3]; adapted semi-continuous batch culture): ≤ 0.55 OD units
- Growth relative to the unamended control without ethanol (strain P11 [3]; all ethanol concentrations, 15-35 g/L): Growth was retarded
- Ethanol concentration at which the adapted culture functions fully (strain P11 [3]; culture adapted to ethanol): 50 grams per liter
- Highest ethanol concentration at which the adapted culture was established (strain P11 [3]; semi-continuous batch culture, stepwise adaptation from 20 g/L): 50 g/L
- Ethanol concentration in which P11 remains viable and will grow (strain P11 [3]; statement in the description): at least 60 g/L
- Ethanol concentration initially tolerated (strain P11 [3]; strain P11, not adapted): up to 30 g/L
- Ethanol concentration that inhibited strain P11 (strain P11 [3]; upon initial isolation): 30 grams per liter

Compound: O=C(O)CF [FA, fluoroacetate]
- Decrease of acetate production (strain P11 [4]; 30 mM FA and above): nearly ninety percent
- Decrease of ethanol production (strain P11 [4]; 30 mM FA and above): fifty
- Decrease of growth yield (strain P11 [4]; 30 mM FA and above): forty percent
- Increase of ethanol to acetate ratio (strain P11 [4]; 30 mM FA and above): eighty percent
- Growth yield (OD) or end products relative to the P11 control (strain P11 [4]; COM containing 20 mM FA): no significant differences
- MIC (strain P11 [4]; Clostridium ragsdalei, strain P11 in COM, CO substrate, read-out: MIC (minimum inhibitory concentration)): 100 mM (≈ 7800 µg/mL)
- Ethanol production compared to the control strains (strain P11 [4]): increase of ethanol production
- Acetate (strain P11 [4]; P11 with 15 mM FA): 48.72 mM
- Ethanol (strain P11 [4]; P11 with 15 mM FA): 39.62 mM
- Final OD 600 (strain P11 [4]; P11 with 15 mM FA): 0.741
- Concentration shown to inhibit growth (thermophilic clostridium): 50 mM

Compound: [Mo] [Mo, molybdenum]
- Acetate production on elimination of the metal (strain P11 [1]): increased acetate production
- CO metabolism on elimination of the metal (strain P11 [1]): CO metabolism increased slightly
- CO metabolism at increased level of the metal (strain P11 [1]): stimulated CO metabolism

Compound: [Ni] [Ni, nickel]
- CO metabolism on elimination of the metal (strain P11 [1]): limited CO metabolism
- Increase in solvent to acid ratio on elimination of the metal (strain P11 [1]): ~400%
- CO metabolism at increased level of the metal (strain P11 [1]): stimulated CO metabolism

Compound: O=C(O)C(F)(F)F [TFA, trifluoroacetate]
- Growth yield (strain P11 [4]; COM containing 30 mM TFA): remained unchanged
- Increase in acetate produced (strain P11 [4]; COM containing 30 mM TFA): 52%
- Increase in ethanol produced (strain P11 [4]; COM containing 30 mM TFA): 126%
- Increase of solvent to acid ratio (strain P11 [4]; COM containing 30 mM TFA): 50%
- Ethanol production compared to the control strains (strain P11 [4]): increase of ethanol production
- Acetate (strain P11 [4]; P11 with 60 mM TFA): 34.58 mM
- Ethanol (strain P11 [4]; P11 with 60 mM TFA): 45.60 mM
- Final OD 600 (strain P11 [4]; P11 with 60 mM TFA): 0.641
- MIC (minimum inhibitory concentration) (strain P11 [4]; strain P11 in COM, CO substrate): 150 mM

Compound: Iron [Fe]
- CO metabolism on elimination of the metal (strain P11 [1]): limited CO metabolism
- Increase in solvent to acid ratio on elimination of the metal (strain P11 [1]): ~300%
- CO metabolism at increased level of the metal (strain P11 [1]): stimulated CO metabolism
- Concentration of ethanol produced (strain P11 [1]; [5]): doubles the concentration of ethanol produced
- Production of acetic acid (strain P11 [1]; [5]): decreasing the production of acetic acid
